Test results published in US10568827B2, “External dermal agent for reducing yellowish dullness” (Hayashibara Co., Ltd., priority 2015, dated 2020).

Target: carbonyl BSA (Bos taurus, UniProt P02769)
Assay: Carbonyl protein reduction test with carbonyl BSA model (OxyBlot dot blot)
Type: biochemical, bovine
Settings: for action of reducing carbonyl protein (carbonyl BSA): conclusion in words
Procedure: A carbonyl protein, obtained by carbonylating bovine serum albumin (termed “BSA”, hereinafter), was prepared as a carbonyl protein model (termed “carbonyl BSA”, hereinafter) and used in this experiment.
In phosphate buffered saline (termed “PBS (-)”, hereinafter) containing 100 μM of sodium hypochlorite as a carbonyl initiator was dissolved BSA to give a final concentration of 40 mg/mL, followed by keeping the resulting solution at 37° C. overnight to form carbonyl BSA, as a carbonyl protein model, used as a substance to cause skin yellowness, and removing the remaining sodium hypochlorite with “AMICON ULTRA 10K”, a product name of ultrafiltration membrane, commercialized by Merck Millipore Corporation, Tokyo, Japan, to obtain a carbonyl BSA. In this experiment, the carbonyl BSA was used as a carbonyl protein model.
Based on Western blot analysis, the concentration of carbonyl BSA was assayed with dot blot method using a kit, “OxyBlot™ Protein Oxidation Detection Kit”, a product name of a kit for analyzing the oxidation level of protein, commercialized by Merck Millipore Corporation, Tokyo, Japan. The resulting measured values (emission intensity) were analyzed with “Image J”, an image processing software explored by National Institutes of Health (NIH), Maryland, USA. While, a PBS (-) solution (called “control”, hereinafter) containing carbonyl BSA, obtained similarly as in the above except for not using any of the test samples, was similarly measured as in the above, followed by determining the ratios of the measured values for those with the test samples against that of control. The results are in Table 1 and FIG. 1. […] The numerals in the table respectively show the ratios of carbonyl BSA when the test samples were respectively used alone against the measured value of carbonyl BSA, regarded as 1, for Control with no addition of any of the test samples.
The results are respectively in Tables 2 and 3 and FIGS. 2 and 3. The numerals with no symbol “%” in each table show ratios of carbonyl BSA obtained in such a manner of calculating the amount of carbonyl BSA for the system with either or both of the test samples that were respectively used alone or used in combination while regarding as one the amount of carbonyl BSA in each control system with no addition of any of the compositions containing glycosyl hesperetin or glycosyl naringenin.
Except for using any one of mannose, N-acetylglucosamine, “MALTOSE HHH” as a product name of maltose, raffinose, maltotetraose, and “TORNARE®” as a product name of glycosyl trehalose used as a cosmetic base material, which are shown in Table 4 below, in place of the composition containing glycosyl naringenin and the ascorbic acid 2-glucoside used in the above (4), and preparing it into a solution containing 0.1 w/v % of any of the above saccharide for use as a test solution for carbonyl protein reduction test, it was examined the carbonyl protein reduction action of the combination use the composition containing glycosyl hesperetin and any one of the above-identified saccharides similarly as in the above (4).
This experiment was conducted with organic acids and amino acids, which were focused on as compounds to be used with the composition containing glycosyl hesperetin.

[1] = test—3, composition containing glycosyl hesperetin (0.1 w/v %) in combination with the labelled organic acid or amino acid (0.1 w/v % as headed)
[2] = test—3, sole use of organic acid or amino acid (0.1 w/v % as headed), Control = 1
[3] = test—2 (Table 5), single use 0.1 w/v %, Control = 1
[4] = test—2, combination use of composition containing glycosyl hesperetin (0.1 w/v %) and the labelled saccharide (0.1 w/v %)
[5] = sole use test, test sample 0.1 w/v %, carbonyl BSA:test sample 1:1 by mass, 37° C., 16 hours, Control (no addition) = 1

carbonyl BSA, sequence (P02769 25-607): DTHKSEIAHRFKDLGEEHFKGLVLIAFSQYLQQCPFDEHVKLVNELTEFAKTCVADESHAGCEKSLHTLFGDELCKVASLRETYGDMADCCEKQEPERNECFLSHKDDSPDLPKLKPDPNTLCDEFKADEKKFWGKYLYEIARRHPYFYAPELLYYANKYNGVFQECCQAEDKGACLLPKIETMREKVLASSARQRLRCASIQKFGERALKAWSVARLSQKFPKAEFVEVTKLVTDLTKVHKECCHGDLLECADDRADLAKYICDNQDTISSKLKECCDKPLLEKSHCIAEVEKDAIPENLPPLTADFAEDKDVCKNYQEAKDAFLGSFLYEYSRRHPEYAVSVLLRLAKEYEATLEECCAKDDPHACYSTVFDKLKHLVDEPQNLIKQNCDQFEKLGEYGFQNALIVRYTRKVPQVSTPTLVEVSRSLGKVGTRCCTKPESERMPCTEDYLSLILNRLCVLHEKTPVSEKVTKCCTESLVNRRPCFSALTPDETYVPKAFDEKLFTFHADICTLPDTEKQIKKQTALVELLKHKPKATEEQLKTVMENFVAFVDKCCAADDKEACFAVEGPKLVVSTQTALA

Row | Compound | Ratio of carbonyl BSA [1] | Ratio of carbonyl BSA [2] | also measured
1 | O=C(O)c1ccccc1 [J, benzoic acid] | 0.44 | 0.95 | 
2 | OC[C@H]1O[C@H](OC[C@H]2O[C@H](O[C@]3(CO)O[C@H](CO)[C@@H](O)[C@@H]3O)[C@H](O)[C@@H](O)[C@@H]2O)[C@H](O)[C@@H](O)[C@H]1O [Raffinose, raffinose] |  |  | Ratio of carbonyl BSA [3]: 0.23; Ratio of carbonyl BSA [4]: 0.54
3 | OC[C@H]1O[C@H](O[C@H]2[C@H](O)[C@@H](O)[C@@H](O[C@H]3[C@H](O)[C@@H](O)[C@@H](O[C@H]4[C@H](O)[C@@H](O)C(O)O[C@@H]4CO)O[C@@H]3CO)O[C@@H]2CO)[C@H](O)[C@@H](O)[C@@H]1O (stereo partly drawn) [Maltotetraose, maltotetraose] |  |  | Ratio of carbonyl BSA [3]: 0.71; Ratio of carbonyl BSA [4]: 0.13
4 | N[C@@H](CCC(=O)N[C@@H](CS)C(=O)NCC(=O)O)C(=O)O [Glutathione (reduced form), reduced glutathione, reference compound] |  |  | action of reducing carbonyl protein (carbonyl BSA): no action of reducing carbonyl protein; Ratio of carbonyl BSA [5]: 1.19
5 | NC(=O)c1cccnc1 [Niacinamide, niacinamide, reference compound] |  |  | action of reducing carbonyl protein (carbonyl BSA): no action of reducing carbonyl protein; Ratio of carbonyl BSA [5]: 1.05
6 | O=C[C@H](O)[C@H]1OC(=O)[C@@H](O)[C@H]1O [G, glucuronolactone] | 0.49 | 1.07 | 
7 | O=C(O)CC(O)(CC(=O)O)C(=O)O [C, citric acid] | 0.52 | 0.96 | 
8 | O=C[C@H](O)[C@@H](O)[C@H](O)[C@H](O)C(=O)O [F, glucuronic acid] | 0.16 | 1.01 | 
9 | COc1cc(/C=C/C(=O)O)ccc1O [E, ferulic acid] | 0.35 | 0.82 | 
10 | OC[C@H]1O[C@H](O[C@H]2[C@H](O)[C@@H](O)C(O)O[C@@H]2CO)[C@H](O)[C@@H](O)[C@@H]1O (mixture of isomers) [Maltose, maltose] |  |  | Ratio of carbonyl BSA [3]: 0.18; Ratio of carbonyl BSA [4]: 0.11
11 | O=C1O[C@H]([C@@H](O)CO)C(O)=C1O[C@H]1O[C@H](CO)[C@@H](O)[C@H](O)[C@H]1O [L-Ascorbic acid 2-glucoside, L-ascorbic acid 2-glucoside, reference compound] |  |  | Ratio of carbonyl BSA [5]: 0.73; Ratio of carbonyl BSA (test—1 (Tables 2, 3), single use, with no addition of the other ingredient, test sample 0.1 w/v %, Control = 1): 0.70
12 | CC(=O)N[C@H]1C(O)O[C@H](CO)[C@@H](O)[C@@H]1O (stereo partly drawn) [N-Acetyl glucosamine] |  |  | Ratio of carbonyl BSA [3]: 0.48; Ratio of carbonyl BSA [4]: 0.79
13 | O=C(O)C(O)C(O)C(=O)O (stereo not drawn) [B, tartaric acid] | 0.51 | 0.95 | 
14 | CC(O)C(=O)O (stereo not drawn) [A, lactic acid] | 0.35 | 0.89 | 

More lines, main results first:

Row | Ratio of carbonyl BSA [1] | Ratio of carbonyl BSA [2] | Compound | also measured
15 | 0.32 | 0.71 | NCC(=O)O [K, glycine] | 
16 | 0.25 | 1.08 | CC(=O)O [H, acetic acid] | 
17 | 0.26 | 1.04 | C/C=C/C=C/C(=O)O [I, sorbic acid] | 
18 | 0.28 | 0.77 | N[C@@H](CCC(=O)[O-])C(=O)[O-].[Na+].[Na+] [L, sodium glutamate] | 
